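96-well plates; 48 h exposure; 5 concentrations. Endpoints by linear interpolation between flanking doses. Not reached: highest tested concentration assigned. Here, GI50 denotes the concentration required for 50% inhibition of growth.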 Active and inactive are the calls of the source. No stated cut-off is given here; in the data, active = GI50 up to about 1.1 µM and inactive = higher.
How the values were obtained:
Assay in all cases: growth of human tumour cells (NCI), 48 h
HT-29 = system: HT-29
TK-10 = system: TK-10
KM12 = system: KM12
OVCAR-8 = system: OVCAR-8
SN12C = system: SN12C
UO-31 = system: UO-31
HCT-15 = system: HCT-15
MCF7 = system: MCF7
HL-60 = system: HL-60
OVCAR-3 = system: OVCAR-3
SF-539 = system: SF-539
UACC-257 = system: UACC-257
SNB-19 = system: SNB-19
K562 = system: K562
SW-620 = system: SW-620
CCRF-CEM = system: CCRF-CEM
HCT-116 = system: HCT-116
A549 = system: A549
A498 = system: A498
EKVX = system: EKVX
NCI-H226 = system: NCI-H226
MDA-N = system: MDA-N
SK-MEL-28 = system: SK-MEL-28
OVCAR-4 = system: OVCAR-4
RPMI-8226 = system: RPMI-8226
SK-OV-3 = system: SK-OV-3
OVCAR-5 = system: OVCAR-5
SF-268 = system: SF-268
ACHN = system: ACHN
M14 = system: M14
HOP-62 = system: HOP-62
RXF 393 = system: RXF 393
MOLT-4 = system: MOLT-4
IGROV-1 = system: IGROV-1
SK-MEL-5 = system: SK-MEL-5
MDA-MB-231 = system: MDA-MB-231
COLO 205 = system: COLO 205
786-0 = system: 786-0
SR = system: SR
SNB-75 = system: SNB-75
NCI-H460 = system: NCI-H460
HOP-92 = system: HOP-92
NCI-H23 = system: NCI-H23
PC-3 = system: PC-3
CAKI-1 = system: CAKI-1
Malme-3M = system: Malme-3M
NCI/ADR-RES = system: NCI/ADR-RES
BT-549 = system: BT-549
HCC 2998 = system: HCC 2998
LOX IMVI = system: LOX IMVI
SF-295 = system: SF-295
UACC-62 = system: UACC-62
DU-145 = system: DU-145
NCI-H522 = system: NCI-H522
U-251 = system: U-251
Hs-578T = system: Hs-578T
SK-MEL-2 = system: SK-MEL-2
MDA-MB-435 = system: MDA-MB-435
T47D = system: T47D

How did the GI50 (HT-29) turn out when N=C(N)SCc1ccc(Cl)c2ccccc12.O=[N+]([O-])c1c(O)c(Cl)cc(Cl)c1Cl was run?
The GI50 was 10.2 µM (inactive).

What about the GI50 (TK-10) of the same compound?
The GI50 was 7.67 µM (inactive).

What about the GI50 (KM12) of the same compound?
Its GI50 is 13.6 µM (inactive).

What about the GI50 (OVCAR-8) of the same compound?
Its GI50 is 17.7 µM (inactive).

What about the GI50 (SN12C) of the same compound?
The GI50 was 11.3 µM (inactive).

And the GI50 (UO-31)?
The GI50 was 9.98 µM (inactive).

What about the GI50 (HCT-15) of the same compound?
Its GI50 is 14.3 µM.

What about the GI50 (MCF7) of the same compound?
Its GI50 is 11.2 µM (inactive).

And the GI50 (HL-60)?
Its GI50 is 4.38 µM (inactive).

What about the GI50 (OVCAR-3) of the same compound?
Its GI50 is 9.18 µM (inactive).

And the GI50 (SF-539)?
Its GI50 is 8.65 µM (inactive).

What about the GI50 (UACC-257) of the same compound?
Its GI50 is 4.72 µM (inactive).

What about the GI50 (SNB-19) of the same compound?
Its GI50 is 14.4 µM (inactive).

What about the GI50 (K562) of the same compound?
Its GI50 is 4.66 µM (inactive).

And the GI50 (SW-620)?
The GI50 was 12.2 µM (inactive).

What about the GI50 (CCRF-CEM) of the same compound?
The GI50 was 9.59 µM (inactive).

What about the GI50 (HCT-116) of the same compound?
Its GI50 is 11.8 µM (inactive).

What about the GI50 (A549) of the same compound?
Its GI50 is 14.6 µM (inactive).

What about the GI50 (A498) of the same compound?
The GI50 was 9.2 µM (inactive).

What about the GI50 (EKVX) of the same compound?
Its GI50 is 7.03 µM (inactive).

What about the GI50 (NCI-H226) of the same compound?
The GI50 was 12 µM (inactive).

And the GI50 (MDA-N)?
The GI50 was 11.1 µM (inactive).

And the GI50 (SK-MEL-28)?
The GI50 was 14.1 µM (inactive).

And the GI50 (OVCAR-4)?
Its GI50 is 4.65 µM (inactive).

What about the GI50 (RPMI-8226) of the same compound?
Its GI50 is 2.64 µM (inactive).

What about the GI50 (SK-OV-3) of the same compound?
Its GI50 is 13.1 µM (inactive).

And the GI50 (OVCAR-5)?
Its GI50 is 13 µM (inactive).

What about the GI50 (SF-268) of the same compound?
Its GI50 is 15.7 µM (inactive).

What about the GI50 (ACHN) of the same compound?
The GI50 was 12.5 µM (inactive).

What about the GI50 (M14) of the same compound?
The GI50 was 10.3 µM (inactive).

What about the GI50 (HOP-62) of the same compound?
The GI50 was 11.5 µM (inactive).

What about the GI50 (RXF 393) of the same compound?
Its GI50 is 7.23 µM (inactive).

What about the GI50 (MOLT-4) of the same compound?
The GI50 was 5.09 µM (inactive).

And the GI50 (IGROV-1)?
Its GI50 is 13 µM (inactive).

What about the GI50 (SK-MEL-5) of the same compound?
The GI50 was 12.6 µM (inactive).

What about the GI50 (MDA-MB-231) of the same compound?
The GI50 was 8.22 µM (inactive).

And the GI50 (COLO 205)?
The GI50 was 10.6 µM (inactive).

And the GI50 (786-0)?
Its GI50 is 11.3 µM (inactive).

And the GI50 (SR)?
The GI50 was 5.42 µM (inactive).

And the GI50 (SNB-75)?
Its GI50 is 11.1 µM (inactive).

What about the GI50 (NCI-H460) of the same compound?
Its GI50 is 8.32 µM (inactive).

What about the GI50 (HOP-92) of the same compound?
The GI50 was 5.89 µM (inactive).

What about the GI50 (NCI-H23) of the same compound?
The GI50 was 12.9 µM (inactive).

What about the GI50 (PC-3) of the same compound?
Its GI50 is 11.9 µM (inactive).

And the GI50 (CAKI-1)?
The GI50 was 5.57 µM (inactive).

And the GI50 (Malme-3M)?
The GI50 was 9.1 µM (inactive).

And the GI50 (NCI/ADR-RES)?
Its GI50 is 17.9 µM (inactive).

What about the GI50 (BT-549) of the same compound?
Its GI50 is 14.8 µM (inactive).

What about the GI50 (HCC 2998) of the same compound?
Its GI50 is 2.33 µM (inactive).

What about the GI50 (LOX IMVI) of the same compound?
Its GI50 is 14.4 µM (inactive).

And the GI50 (SF-295)?
Its GI50 is 11.6 µM (inactive).

What about the GI50 (UACC-62) of the same compound?
Its GI50 is 13.5 µM (inactive).

And the GI50 (DU-145)?
Its GI50 is 14 µM (inactive).

And the GI50 (NCI-H522)?
The GI50 was 4.56 µM (inactive).

And the GI50 (U-251)?
The GI50 was 12.9 µM (inactive).

And the GI50 (Hs-578T)?
The GI50 was 17.9 µM (inactive).

What about the GI50 (SK-MEL-2) of the same compound?
Its GI50 is 8.95 µM (inactive).

What about the GI50 (MDA-MB-435) of the same compound?
The GI50 was 8.38 µM (inactive).

What about the GI50 (T47D) of the same compound?
The GI50 was 4.19 µM (inactive).

From ChEMBL document CHEMBL1201862, “PubChem BioAssay data set” (2004)
